The text below walks through data of PubChem BioAssay (NCI).

Some test systems named below: A498 renal; HCT-15 colon; SNB-75 CNS; SR leukemia; SF-295 CNS; RPMI-8226 leukemia; U251 CNS; T-47D breast; NCI-H23 lung; IGROV1 ovarian.
Test in all cases: DTP human tumour cell line panel, 48 h

Structures are written as SMILES. “And” between values parts separate entries of the source, which are not always exact repeats. Identical values can stand only once.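 Step 1: Grow cells in 96-well plates. Step 2: Expose to compound for 48 hours at 5 concentrations. Step 3: Interpolate endpoints linearly; if unreached, use highest concentration. GI50 is the concentration that inhibits growth by half. TGI marks complete inhibition of growth.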

As for `COc1cc2c(cc1Cc1cccc(Cl)c1F)c(=O)c(C(=O)O)cn2[C@@H](CO)C(C)C`, the GI50 in the assay with A498 renal was 2.26 µM; with HCT-15 colon, 3640 nM; in the assay with SNB-75 CNS it was 2530 nM; in the assay on SR leukemia it was 3540 nM; in the assay on SF-295 CNS it was 2140 nM; in the assay with RPMI-8226 leukemia, 3360 nM. Besides, the GI50 in the assay on U251 CNS is 3170 nM; in the assay on T-47D breast, 5.5 µM; in the assay with NCI-H23 lung it was 3180 nM; in the assay with IGROV1 ovarian, 2420 nM. The TGI in the assay on A498 renal is 14.2 µM; with HCT-15 colon, 14.4 µM; with SNB-75 CNS it was 13.7 µM; with SR leukemia it was 13.8 µM; in the assay on SF-295 CNS, 5.53 µM; in the assay on RPMI-8226 leukemia it was 12.5 µM. In addition, the TGI is 12.2 µM in the assay on U251 CNS, 18.3 µM in the assay on T-47D breast, 12.4 µM in the assay with NCI-H23 lung and 5.61 µM in the assay with IGROV1 ovarian.
Regarding `[Cl][Hg][c]1ccc(Cl)s1`, the GI50 in the assay on A498 renal is 17.2 µM; in the assay on HCT-15 colon, 397 nM; with SNB-75 CNS, 3570 nM; in the assay with SR leukemia, 319 nM; in the assay with SF-295 CNS, 11500 nM; in the assay with RPMI-8226 leukemia it was 2230 nM. The GI50 with U251 CNS is 910 nM; in the assay with T-47D breast, 0.908 µM; in the assay on NCI-H23 lung, 2690 nM; with IGROV1 ovarian, 1620 nM. For the same compound, the TGI turned out to be 31.2 µM in the assay with A498 renal; 1.72 µM with HCT-15 colon; 17.3 µM in the assay on SNB-75 CNS; 25.7 µM with SF-295 CNS; 6.58 µM with RPMI-8226 leukemia; 2.71 µM with U251 CNS. Besides, the total growth inhibition concentration (TGI) with T-47D breast was found to be 3.37 µM; in the assay with NCI-H23 lung it was 8.05 µM; with IGROV1 ovarian, 3.67 µM.
With `C[C@]12CC[C@@H]3c4cc(O)c(O)cc4CC[C@H]3[C@@H]1CC[C@@H]2O`, the GI50 is 19.7 µM in the assay on A498 renal; 877 nM with HCT-15 colon; 1550 nM in the assay on SNB-75 CNS; 576 nM with SR leukemia; 7190 nM in the assay with SF-295 CNS; 3990 nM in the assay on RPMI-8226 leukemia. The GI50 is 6860 nM in the assay on U251 CNS, 7.73 µM in the assay with T-47D breast, 5310 nM in the assay on NCI-H23 lung and 11000 nM in the assay on IGROV1 ovarian. Further, the TGI in the assay on A498 renal was found to be 62.3 µM; in the assay with HCT-15 colon, 24.8 µM; with SNB-75 CNS, 8.32 µM; with SR leukemia, 48.5 µM; with SF-295 CNS, 32.9 µM; with RPMI-8226 leukemia, 30.3 µM. For the same compound, the TGI in the assay with U251 CNS was 35.1 µM; with T-47D breast, 27.7 µM; in the assay on NCI-H23 lung, above 83.7 µM; with IGROV1 ovarian, above 91.3 µM.
For `CCCCCCCCC/C(=N\NC(=O)c1ccncc1)c1ccc(O)c(O)c1O`, the GI50 is 1.56 µM in the assay with A498 renal; 63.5 nM with HCT-15 colon; 631 nM in the assay with SNB-75 CNS; 57.6 nM with SR leukemia; 307 nM in the assay with SF-295 CNS; 195 nM with RPMI-8226 leukemia. Further, the GI50 in the assay with U251 CNS was 110 nM; in the assay on T-47D breast it was 0.596 µM; in the assay with NCI-H23 lung, 393 nM; with IGROV1 ovarian, 184 nM. In addition, the concentration for total growth inhibition (TGI) is above 100 µM in the assay on A498 renal; above 100 µM in the assay on HCT-15 colon; above 100 µM in the assay with SNB-75 CNS; 24.4 µM with SR leukemia; above 100 µM in the assay on SF-295 CNS; 31.5 µM in the assay on RPMI-8226 leukemia. Moreover, the total growth inhibition concentration (TGI) was 65.9 µM in the assay with U251 CNS, above 93.6 µM in the assay with T-47D breast, 29.1 µM in the assay on NCI-H23 lung and above 78.1 µM in the assay on IGROV1 ovarian.
For the compound `C=C1C(=O)O[C@H]2C[C@@H]1CC/C(C)=C/CC/C(C)=C/CC[C@@]2(C)O`, the GI50 is 43.8 µM with A498 renal; 26400 nM in the assay on HCT-15 colon; 70800 nM with SNB-75 CNS; 26500 nM in the assay with SR leukemia; above 100000 nM in the assay with SF-295 CNS; 20400 nM with RPMI-8226 leukemia. In addition, the GI50 is 53000 nM in the assay on U251 CNS, above 100 µM in the assay on T-47D breast, 7510 nM in the assay with NCI-H23 lung and 23100 nM with IGROV1 ovarian. Further, the TGI in the assay with A498 renal is above 100 µM; in the assay with HCT-15 colon, 71.6 µM; with SNB-75 CNS, above 100 µM; in the assay with SR leukemia, 63.6 µM; in the assay with SF-295 CNS, above 100 µM; in the assay with RPMI-8226 leukemia, 43.5 µM. In addition, the total growth inhibition concentration (TGI) was above 100 µM with U251 CNS, above 100 µM in the assay with T-47D breast, above 100 µM in the assay with NCI-H23 lung and 74.2 µM with IGROV1 ovarian.
Turning to `COc1ccc2c(O)c(/C=C3\N=Nc4ccccc43)oc2c1C[C@@H]1CCNC[C@H]1F`, the GI50 in the assay with A498 renal is 11.3 µM; in the assay with HCT-15 colon, 14200 nM; in the assay with SNB-75 CNS, 8460 nM; in the assay with SR leukemia, 1500 nM; with SF-295 CNS it was 3310 nM; in the assay with RPMI-8226 leukemia, 7050 nM. Besides, the GI50 with U251 CNS is 3170 nM; in the assay with T-47D breast it was 18.5 µM; in the assay on NCI-H23 lung it was 10600 nM; in the assay with IGROV1 ovarian it was 10900 nM. The TGI in the assay on A498 renal came out at 25.6 µM; in the assay with HCT-15 colon it was 28.9 µM; in the assay with SNB-75 CNS it was 21.5 µM; with SR leukemia, 5.48 µM; in the assay on SF-295 CNS, 15.3 µM; in the assay with RPMI-8226 leukemia it was 30.5 µM. Moreover, the TGI in the assay with U251 CNS stood at 10.6 µM; in the assay with T-47D breast, 40.8 µM; in the assay on NCI-H23 lung it was 24.6 µM; in the assay with IGROV1 ovarian, 26.2 µM.
For the compound `O=C1NC2C(=CC(O)C(O)C2O)c2cc3c(cc21)OCO3` (configuration not stated), the GI50 with A498 renal was 0.904 µM and 0.568 µM; in the assay on HCT-15 colon it was 406 nM and 216 nM; with SNB-75 CNS, 165 nM and 291 nM; with SF-295 CNS, 889 nM and 317 nM; with RPMI-8226 leukemia, 500 nM and 147 nM; in the assay with U251 CNS it was 325 nM and 68.8 nM. Moreover, the GI50 with NCI-H23 lung was 325 nM and 205 nM; in the assay on IGROV1 ovarian, 393 nM. The TGI with A498 renal is 3.64 µM and 2.69 µM; with HCT-15 colon, 9.97 µM and 6.41 µM; in the assay on SNB-75 CNS, 0.953 µM and 4.31 µM and 4 µM; in the assay on SR leukemia, 0.566 µM; in the assay with SF-295 CNS, 3.26 µM and 2.39 µM; with RPMI-8226 leukemia, 0.908 µM and 1.67 µM. Further, the TGI with U251 CNS was 0.437 µM and 3.07 µM; in the assay with T-47D breast, 1.5 µM; with NCI-H23 lung it was 2 µM and 2.84 µM; in the assay with IGROV1 ovarian, 9.21 µM and 3.01 µM.

The GI50 is the concentration that inhibits growth by half. A word on the TGI: it is the concentration giving total growth inhibition. A higher TGI goes with less potent growth arrest.
